{"source": "patent US20100297230A1", "about": "“COMPOSITIONS AND METHODS FOR PROSTATE AND MENSTRUAL/MENOPAUSAL RELATED HEALTH” (priority 2009, published 2010)", "origin": "cited, not measured here", "key": {"[1]": {"tested_on": "rats with prostatic hyperplasia", "details": "testosterone enanthate treated rats; 0.1 mg benzylglucosinolate"}, "[2]": {"details": "single dose of Epimedium tea"}, "[3]": {"tested_on": "COX-2 expression"}, "[4]": {"details": "in vivo"}, "[5]": {"tested_on": "late postmenopausal women", "details": "daily 60 mg icariin, 15 mg daidzein, 3 mg genistein; over 25 months; compared to placebo"}, "[6]": {"biological_target": "estrogen receptor beta (Homo sapiens, UniProt Q92731)", "sequence (Q92731 whole entry, species assumed)": "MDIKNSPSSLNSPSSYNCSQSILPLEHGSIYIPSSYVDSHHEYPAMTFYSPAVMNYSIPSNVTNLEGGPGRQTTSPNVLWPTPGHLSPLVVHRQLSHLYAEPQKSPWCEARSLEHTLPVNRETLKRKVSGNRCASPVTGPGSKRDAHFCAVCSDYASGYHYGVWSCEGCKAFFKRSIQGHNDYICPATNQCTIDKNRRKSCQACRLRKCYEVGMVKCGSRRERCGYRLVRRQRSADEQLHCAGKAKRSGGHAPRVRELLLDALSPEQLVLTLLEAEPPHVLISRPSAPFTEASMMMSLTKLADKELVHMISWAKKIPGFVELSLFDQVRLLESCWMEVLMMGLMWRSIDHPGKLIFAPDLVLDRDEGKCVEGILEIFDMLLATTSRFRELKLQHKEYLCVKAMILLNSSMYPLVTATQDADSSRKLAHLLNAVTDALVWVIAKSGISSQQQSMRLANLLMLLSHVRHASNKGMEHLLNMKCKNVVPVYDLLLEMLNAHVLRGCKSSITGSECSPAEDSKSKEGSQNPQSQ"}, "[7]": {"biological_target": "T1, primary alpha receptor (estrogen receptor) (Homo sapiens, UniProt P03372)", "T1 sequence (P03372 1-595)": "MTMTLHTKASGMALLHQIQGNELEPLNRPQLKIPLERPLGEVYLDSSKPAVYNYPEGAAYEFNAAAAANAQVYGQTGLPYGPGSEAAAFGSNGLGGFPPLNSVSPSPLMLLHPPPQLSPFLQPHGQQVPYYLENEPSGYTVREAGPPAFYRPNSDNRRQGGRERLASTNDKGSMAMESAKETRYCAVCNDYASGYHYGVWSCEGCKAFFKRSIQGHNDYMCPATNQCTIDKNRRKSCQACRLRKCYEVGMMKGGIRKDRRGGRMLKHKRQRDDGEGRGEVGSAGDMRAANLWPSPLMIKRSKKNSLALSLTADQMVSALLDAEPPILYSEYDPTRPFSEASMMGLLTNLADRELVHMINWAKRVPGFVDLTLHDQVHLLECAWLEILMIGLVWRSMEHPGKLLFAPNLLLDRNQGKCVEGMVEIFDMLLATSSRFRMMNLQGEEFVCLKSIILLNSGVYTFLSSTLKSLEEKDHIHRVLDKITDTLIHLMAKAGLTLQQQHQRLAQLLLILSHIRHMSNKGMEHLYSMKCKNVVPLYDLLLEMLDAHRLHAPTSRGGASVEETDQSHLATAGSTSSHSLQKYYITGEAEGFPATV"}, "[8]": {"tested_on": "human prostate carcinoma PC-3 cells", "details": "in vitro"}, "[9]": {"tested_on": "human prostatic smooth muscle cells"}, "[10]": {"tested_on": "MMP2", "details": "PC-3 cells"}, "[11]": {"tested_on": "rats", "details": "for prostate and seminal vesicle size: 270 mg/kg daily injection, compared to all other treatments, P<0.05"}, "[12]": {"details": "male and female subjects 18-55 yrs"}, "[13]": {"tested_on": "MMP9", "details": "PC-3 cells"}}, "note": "“Also recorded” adds a separate entry of the source. Where two headings read alike, the source gives them in different places.", "data": [{"compound": "O=S(=O)(O)O/N=C(\\Cc1ccccc1)S[C@@H]1O[C@H](CO)[C@@H](O)[C@H](O)[C@H]1O", "note": "[Benzylglucosinolate]", "values": [{"measurement": "prostate weight", "setting": "[1]", "result": "as effective at reducing prostate weight as 0.1 mg finasteride"}]}, {"compound": "CC(C)=CCc1c(O)cc(O)c2c(=O)c(O)c(-c3ccc(O)cc3)oc12", "note": "[Desmethylicaritin]", "values": [{"measurement": "serum desmethylicaritin", "setting": "[2]; desmethyl-icaritin 0.19 mg", "result": "not detected"}]}, {"compound": "O=C(/C=C/c1ccc(O)c(O)c1)O[C@H](Cc1ccc(O)c(O)c1)C(=O)O", "note": "[Rosmarinic acid]", "values": [{"measurement": "AP-1-dependent activation of COX-2 expression", "setting": "[3]", "result": "potential preventative effects"}, {"measurement": "metabolic conversion", "setting": "[4]", "result": "converted to 3-O-methyl rosmarinic acid"}, {"measurement": "time to enter the system after administration", "setting": "[4]", "result": "≤ 20", "unit": "min"}]}, {"compound": "COc1ccc(-c2oc3c(CC=C(C)C)c(O[C@@H]4O[C@H](CO)[C@@H](O)[C@H](O)[C@H]4O)cc(O)c3c(=O)c2O[C@@H]2O[C@@H](C)[C@H](O)[C@@H](O)[C@H]2O)cc1", "note": "[icariin, 5-hydroxy-2-(4-methoxyphenyl)-8-(3-methylbut-2-enyl)-7-[(2S,3R,4S,5S,6R)-3,4,5-trihydroxy-6-(hydroxymethyl)oxan-2-yl]oxy-3-[(2S,3R,4R,5R,6S)-3,4,5-trihydroxy-6-methyloxan-2-yl]oxychromen-4-one]", "values": [{"measurement": "bone mass density / bone loss", "setting": "[5]", "result": "increases bone density"}, {"measurement": "interaction with estrogen receptor beta", "setting": "[6]", "result": "interact with estrogen receptor beta; also recorded: targets the beta receptor over the alpha receptor"}, {"measurement": "peak serum icariin concentration", "setting": "[2]; 12.6 mg icariin ingested", "result": 2.1, "unit": "ng/mL"}, {"measurement": "interaction with estrogen receptor alpha", "setting": "[7]", "result": "not with the primary alpha receptor"}]}, {"compound": "COc1ccc(-c2oc3c(CC=C(C)C)c(O)cc(O)c3c(=O)c2O)cc1", "note": "[icaritin]", "values": [{"measurement": "growth of prostate carcinoma cells", "setting": "[8]", "result": "inhibit prostate cancer cell growth"}, {"measurement": "growth of prostate carcinoma cells", "setting": "[8]; listed as Icaritin", "result": "strongly inhibited growth"}, {"measurement": "time of peak icaritin level", "setting": "[2]", "result": 8, "unit": "h"}, {"measurement": "apoptosis of human prostatic smooth muscle cells", "setting": "[9]", "result": "inducing apoptosis; also recorded: induces apoptosis"}, {"measurement": "cyclin D1 and CDK4 expression", "setting": "[9]", "result": "decreases"}, {"measurement": "growth of human prostatic smooth muscle cells", "setting": "[9]", "result": "reduces the growth"}]}, {"compound": "O=c1c(O)c(-c2ccc(O)c(O)c2)oc2cc(O)cc(O)c12", "note": "[quercetin, 2-(3,4-dihydroxyphenyl)-3,5,7-trihydroxy-4H-chromen-4-one]", "values": [{"measurement": "MMP2 activity", "setting": "[10]; P<0.05", "result": "significantly inhibited"}, {"measurement": "MMP2 expression", "setting": "[10]; dose dependent manner", "result": "inhibited"}, {"measurement": "prostate and seminal vesicle size", "setting": "[11]", "result": "decreased significantly"}, {"measurement": "prostate and seminal vesicle size", "setting": "[11]; listed as Quercetin", "result": "effective at reducing prostate size"}, {"measurement": "sperm quality and sexual organ function", "setting": "[11]; 270 mg/kg group", "result": "positive effect"}, {"measurement": "peak plasma concentration", "setting": "[12]", "result": 463, "unit": "ng/mL"}, {"measurement": "time to peak plasma concentration", "setting": "[12]", "result": 3.5, "unit": "h"}, {"measurement": "MMP9 activity", "setting": "[13]; P<0.05", "result": "significantly inhibited"}, {"measurement": "MMP9 expression", "setting": "[13]; dose dependent manner", "result": "inhibited"}]}]}
